In brackets after ≈: the same amount, converted by molar mass. Marks after values point to notes of the source that are not given here. Non-standard residues stand in square brackets, D forms with d. Residues, ends and D or L forms follow the SMILES beside them. d2Nal = N[C@H](Cc1ccc2ccccc2c1)C(=O)O
Experiments:
[1] = Serum stability assay (residual level by RP-HPLC); conditions: human
[2] = test system: Staphylococcus aureus (NRS 384); experiment: microbe, parasite or virus in culture; format: cell-based; conditions: NRS 384
In short: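 CLSI broth microdilution with serial twofold dilutions gave MICs against S. aureus NRS 384, with 5 parallel replicates. Levofloxacin and the AMP Cbf-K16 served as positive controls.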

[3] = test system: Corynebacterium ATCC 7715; format: cell-based
In short: (§1)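 Five parallel repeats; twofold dilution series of each peptide per US CLSI susceptibility protocol; endpoint = MIC.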

[4] = test system: Klebsiella pneumoniae ATCC 700603; format: cell-based
In short: as §1

[5] = test system: Pseudomonas aeruginosa ATCC 27853; format: cell-based
In short: as §1

Candida utilis ATCC 9950 = format: cell-based
In short: as §1

Enterococcus ATCC 29212 = format: cell-based
In short: as §1

Candida krusei ATCC 6258 = format: cell-based
In short: as §1

[6] = test system: Candida albicans ATCC MYA-2876; format: cell-based
In short: as §1

[7] = test system: Salmonella typhimurium ATCC 14028; format: cell-based
In short: as §1

[8] = test system: Staphylococcus aureus ATCC 25923; format: cell-based
In short: as §1

[9] = test system: Trichophyton ATCC MYA-4438; format: cell-based
In short: as §1

[10] = test system: Serratia marcescens ATCC 29021; format: cell-based
In short: as §1

[11] = test system: Candida glabrata ATCC 15126; format: cell-based
In short: as §1

[12] = test system: Escherichia coli ATCC 25922; format: cell-based
In short: as §1

[13] = test system: Candida tropicalis ATCC 750; format: cell-based
In short: as §1

[14] = test system: Bacillus subtilis ATCC 6633; format: cell-based
In short: as §1

[15] = test system: Shigella flexneri ATCC 12022; experiment: MIC against clinically common bacterial strain; format: cell-based
In short: as §1

[16] = test system: Escherichia coli ATCC 25922; experiment: Oral formulations on mice with systemic bacterial infection; format: in vivo, ICR mice; conditions: three times a day for 7 days; for Number of mice that died on each day after infection: day 4 / Number of mice that died on each day after infection: day 5 / Number of mice that died on each day after infection: day 6 / Number of mice that died on each day after infection: day 7 / Number of mice that died on each day after infection: day 8 / Average survival times (Days): n = 10; for Average survival times (Days): observed for 14 d
In short: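 ICR mice of both sexes, 10 per group, infected i.p. with 0.2 mL E. coli ATCC 25922 at 1×10^7 CFU/mL. Compounds gavaged by body weight immediately after infection, three times daily for 7 days; deaths and survival time recorded over 14 d observation.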

[17] = test system: Staphylococcus aureus (NRS 384); conditions: NRS 384, 3 h
Experimental: Trypsin (250 U/mg, pH=8.0) and AMPs (LV-1 to LV-30) were mixed in a ratio of 1:10 (w/w) and added to a reaction buffer (0.2 M sodium phosphate, 1 mM CaCl2), pH 7.5), and then incubated at 37° C. for 3 h.

SMILES: CC(=O)N[C@H](CCCCN)C(=O)N[C@H](CCCCN)C(=O)N[C@H](CC(C)C)C(=O)N[C@H](CC(C)C)C(=O)N[C@H](Cc1ccc2ccccc2c1)C(=O)N[C@H](CCCNC(=N)N)C(=O)N[C@H](CC(C)C)C(=O)N[C@H](CCCCN)C(=O)N[C@H](Cc1ccc2ccccc2c1)C(=O)N[C@H](CCCNC(=N)N)C(=O)N[C@H](CCCCN)C(N)=O [LV-19] (Ac-[dK][dK][dL][dL][d2Nal][dR][dL][dK][d2Nal][dR][dK]-NH2)
- remaining at 12 h, 0.91 mg/mL [1]: 98.1%
- MIC against Staphylococcus aureus (NRS 384) [2]: 1 µg/mL (≈ 0.618 µM)
- MIC Corynebacterium ATCC 7715 [3]: 2 µg/mL (≈ 1.24 µM)
- MIC Klebsiella pneumoniae ATCC 700603 [4]: 2 µg/mL (≈ 1.24 µM)
- MIC Pseudomonas aeruginosa ATCC 27853 [5]: 1 µg/mL (≈ 0.618 µM)
- MIC Candida utilis ATCC 9950 (Candida utilis ATCC 9950): 8 µg/mL (≈ 4.94 µM)
- MIC Enterococcus ATCC 29212 (Enterococcus ATCC 29212): 2 µg/mL (≈ 1.24 µM)
- MIC Candida krusei ATCC 6258 (Candida krusei ATCC 6258): 16 µg/mL (≈ 9.89 µM)
- MIC Candida albicans ATCC MYA-2876 [6]: 8 µg/mL (≈ 4.94 µM)
- MIC Salmonella typhimurium ATCC 14028 [7]: 2 µg/mL (≈ 1.24 µM)
- MIC Staphylococcus aureus ATCC 25923 [8]: 1 µg/mL (≈ 0.618 µM)
- MIC Trichophyton ATCC MYA-4438 [9]: 8 µg/mL (≈ 4.94 µM)
- MIC Serratia marcescens ATCC 29021 [10]: 8 µg/mL (≈ 4.94 µM)
- MIC Candida glabrata ATCC 15126 [11]: 8 µg/mL (≈ 4.94 µM)
- MIC Escherichia coli ATCC 25922 [12]: 1 µg/mL (≈ 0.618 µM)
- MIC Candida tropicalis ATCC 750 [13]: 4 µg/mL (≈ 2.47 µM)
- MIC Bacillus subtilis ATCC 6633 [14]: 8 µg/mL (≈ 4.94 µM)
- MIC Shigella flexneri ATCC 12022 [15]: 4 µg/mL (≈ 2.47 µM)
- Number of mice that died on each day after infection: day 4 ([16]; 0.2 mg/kg gavage): 0 Mouse
- Number of mice that died on each day after infection: day 5 ([16]; 0.2 mg/kg gavage): 2 Mouse
- Number of mice that died on each day after infection: day 6 ([16]; 0.2 mg/kg gavage): 1 Mouse
- Number of mice that died on each day after infection: day 7 ([16]; 0.2 mg/kg gavage): 2 Mouse
- Number of mice that died on each day after infection: day 8 ([16]; 0.2 mg/kg gavage): 1 Mouse
- Average survival times (Days) ([16]; 0.2 mg/kg gavage): 9.4** Days
- Number of mice that died on each day after infection: day 4 ([16]; 1 mg/kg gavage): 0 Mouse
- Number of mice that died on each day after infection: day 5 ([16]; 1 mg/kg gavage): 1 Mouse
- Number of mice that died on each day after infection: day 6 ([16]; 1 mg/kg gavage): 1 Mouse
- Number of mice that died on each day after infection: day 7 ([16]; 1 mg/kg gavage): 1 Mouse
- Number of mice that died on each day after infection: day 8 ([16]; 1 mg/kg gavage): 0 Mouse
- Average survival times (Days) ([16]; 1 mg/kg gavage): 11.6**** Days
- Number of mice that died on each day after infection: day 4 ([16]; 5 mg/kg gavage): 0 Mouse
- Number of mice that died on each day after infection: day 5 ([16]; 5 mg/kg gavage): 2 Mouse
- Number of mice that died on each day after infection: day 6 ([16]; 5 mg/kg gavage): 1 Mouse
- Number of mice that died on each day after infection: day 7 ([16]; 5 mg/kg gavage): 1 Mouse
- Number of mice that died on each day after infection: day 8 ([16]; 5 mg/kg gavage): 0 Mouse
- Average survival times (Days) ([16]; 5 mg/kg gavage): 10.7*** Days
- survival time of mice infected with Escherichia coli ([16]; gavage, observed 14 d): superior to those of the Levofloxacin group
- Trypsin MIC [17]: 1 µg/mL

From patent US20250304620A1, “ANTIMICROBIAL PEPTIDE AND APPLICATION THEREOF” (priority 2023, published 2025)
